Reference: US11767316B2, “Non-fused thiophene derivatives and their uses” (ENYO PHARMA, priority 2018, dated 2023)

Tests used:
LXFL 1121 = assay: Cytotoxicity, propidium iodide based monolayer assay, LXFL 1121; details: 96 h; LXFL 1121 (lung large cell carcinoma), four days of treatment, T/C=50%; read-out: Absolute IC50
Experimental: The cytotoxicity was tested for compounds of the invention on five different cell-lines, namely LXFL 1121, MAXF 401, MMXF L-636, PRXF PC-3M and UXF 1138 which are respectively lung large cell carcinoma, breast adeno carcinoma, multiple myeloma, prostate adeno carcinoma and uterine sarcoma.
A working stock solution of the test compounds was prepared in DMSO at a concentration of 33 mM or 8.25 mM, and small aliquots were stored at −20° C. On each day of an experiment, a frozen aliquot of the working stock solution was thawed and stored at room temperature prior to and during treatment.
All liquid handling steps were performed using the Tecan Freedom EVO 200 platform. First, serial 2-fold dilutions of the 33 mM DMSO working stock solution were done in DMSO. […]
A modified propidium iodide (PI) based monolayer assay was used to assess the anti-cancer activity of the compounds. Briefly, cells were harvested from exponential phase cultures, counted and plated in 96 well flat-bottom microtiter plates at a cell density of 4,000 to 40,000 cells/well dependent on the cell line's growth rate. […] After an incubation period of 1-2 hours at room temperature, fluorescence (FU) was measured using the Enspire Multimode Plate Reader (excitation λ=530 nm, emission λ=620 nm) to quantify the amount of attached viable cells. […]

NFκB = NFκB reporter assay (NanoLuciferase) in A549 cells, TNFα stimulation; format: cell-based; details: Homo sapiens, 4 ng/ml TNFα, 6 hours
Excerpt: Compounds of the present invention have been tested for their capacity to inhibit NFκB.
The NFκB reporter construct was made by cloning 5 NFκB responsive elements upstream of a NanoLuciferase reporter gene flanked by AAVS1 genomic sequences.
NFκB Responsive element fused with NanoLuciferase and SV40 late Poly(A) signal was amplified from pNL3.2-NFκB-Nluc (Promega) using NFKB-NLUC-F and NFKB-NLUC-R primers and inserted by Infusion (TaKaRa) in AAVS1 SA-2A-puro-pA donor plasmid (Hockemeyer et al, Nat Biotechnol. 2009, 27, 851-7) digested by Sal1. pCRISPR AAVS1-T2 expressing a guide RNA (gRNA) to target human AAVS1 (T2 target sequence) was constructed by inserting AAVS1-T2A hybridized primers in pLentiCRISPR v2-blast (Sanjana et al, Nat Methods. 2014, 11, 783-4) digested by Bsmb1.
A549 cells were transfected by the plasmids and puromycine selected for 5 days (1 μg mL-1). Then clones were obtained by limiting dilution and selected to maximize TNFα dependent NFkB-NanoLuciferase induction.
The reporter cells were seeded on a 96-well plate for overnight with DMEM including 10% FBS. Test compounds were added at varying concentrations. The cells then were treated with 4 ng/ml TNFα (Peprotech, ref E251) in DMEM+10% FBS. NanoGlo luciferase assay (Promega) was carried out 6 hours later. Luminescence was measured using a Spark 20M spectrofluorimeter (Tecan). Values were normalized to the luminescence measured in untreated cells.

**Q.** O=C(Nc1scc(C2CCc3ccccc3C2)c1C(=O)O)c1ccccc1 (centres unmarked) [#16] was tested. Which IC50 (LXFL 1121) did it give?
**A.** Its IC50 is 878 nM.

**Q.** And the EC50 (NFκB)?
**A.** Its EC50 is 80 nM.
